Data reported in patent US8758802B2, “Methods of inhibiting cataracts and presbyopia” (University of Massachusetts, priority 2009, dated 2014).
“Also recorded” adds a separate entry of the source.

System: βL-crystallin
Test: Dynamic light scattering of βL-crystallin solutions with added agents (aggregate size, hydrodynamic radius)
Assay type: biochemical, bovine
Settings: for Effect on βL-crystallin aggregate size / de-clumping: SDS 0.1 mg/mL (below CMC), 0.2 mg/mL βL-crystallin in water, sulfate
Method: βL-crystallin (C5163 Sigma-Aldrich) and α-crystallin (C4163 Sigma-Aldrich) from a bovine eye lens were stored in a biological freezer. The four stock solutions prepared for these experiments were 2 mg/mL βL-crystallin in water, 2 mg/mL βL-crystallin in PBS, 2 mg/mL α-crystallin in water, and 0.15M NaCl in water. All water used in these experiments was filtered and deionized. A stock solution of 2 mg/mL βL-crystallin in water was prepared by mixing 10 mg of βL-crystallin with 5 mL water in a decontaminated 20 mL scintillation vial. A similar procedure was followed to prepare 2 mg/mL α-crystallin in water and 2 mg/mL βL-crystallin in PBS.
A dilution of these stock solutions was used to create 2 mL samples of 0.2 mg/mL βL-crystallin in water, 0.2 mg/mL α-crystallin in water, 0.2 mg/mL βL-crystallin, 0.15M NaCl in water, 0.2 mg/mL βL-crystallin, 0.6 mg/mL α-crystallin in water, and 0.2 mg/mL βL-crystallin in PBS.
An ALV instrument with an Ar laser (λ=514.5 nm) was used to collect DLS data from 35°-65° in 5° increments and from 70°-90° in 10° increments. An ALV5000 correlator was used to analyze the data. Glass DLS tubes (4 mL) were sonicated in an extremely dilute solution of Micro-90 for 1 hour and then rinsed with filtered deionized water eight times followed by acetone eight times. The concentration of crystallins in the lens is typically very high. However, dilute solutions of the crystallins are required for DLS characterization, as set forth by limitations imposed by the Zimm regime.
The hydrodynamic radius, Rh, can be determined using the Stokes-Einstein equation,
As mentioned earlier, α-crystallin acts as a chaperone protein in the lens as it either diminishes or inhibits aggregation. In order to determine the impact of α-crystallin and its chaperone abilities on βL-crystallin, a solution of 0.2 mg/mL βL-crystallin, 0.6 mg/mL α-crystallin in water at 23° C. was prepared for DLS. […] The addition of the chaperone was thereby seen to remove the aggregate.
In order to determine if the aggregation of the crystallins is electrostatic in nature, dynamic light scattering was accomplished on 0.2 mg/mL βL-crystallin in a 0.15M NaCl water solution, (FIG. 8).
The effect of SDS, sodium dodecyl sulfate (purchased from Sigma Aldrich) a […] surfactant on βL-crystallin deaggregation was studied as in Example 4. The CMC for SDS is 2.36 mg/ml, so the SDS concentration was maintained below that value.

[1] = 0.2 mg/mL βL-crystallin, 0.15M NaCl in water

Row | Compound | Effect on βL-crystallin aggregate size / de-clumping (listed as sodium dodecyl sulfate) | Effect on βL-crystallin aggregate size / de-clumping | Rh of βL-crystallin aggregate (slow mode) after addition of the salt (0.2 mg/mL βL-crystallin in 0.15M NaCl water solution, without salt 230 nm) | Effect of salt on fast mode (unaggregated βL-crystallin) [1] | Reduction in aggregate Rh upon addition of NaCl [1] | Effect on βL-crystallin aggregate size (about 0.15 M NaCl)
1 | CCCCCCCCCCCCOS(=O)(=O)[O-].[Na+] [SDS, sodium dodecyl sulfate, reference compound] | no effect; also recorded: does not reduce βL-crystallin aggregate sizes | did not stimulate de-clumping |  |  |  | 
2 | [Cl-].[Na+] [NaCl] |  |  | 120 nm | not significantly affected | two-fold reduction | decreases βL-crystallin aggregate size
